Test results: patent US8802712B2, “Pyrazoloquinolines” (Merck Patent GmbH, priority 2010, dated 2014)
Like-named read-outs stand apart in the source and are kept apart here.

Columns and labels:
[1] = test system: colorectal carcinoma cell line HCT116; experiment: Cellular Colony Growth Test with X-ray irradiation; assay type: cell-based; details: Homo sapiens, HCT-116, 4.8 Gy X-rays
Experimental: Cellular Colony Growth Test The colorectal carcinoma cell line HCT116 was cultivated in MEM alpha medium with 10% oif foetal calf serum, 1 mM sodium pyruvate and 2 mM glutamine at 37° C. and 10% CO2. The cells were detached from the base of the culture vessels with the aid of trypsine/EDTA, centrifuged off in centrifuge tubes and taken up in fresh medium. The cell density was subsequently determined. 300 cells were sown out in 6-well cell culture plates in 2 ml of culture medium and cultivated overnight. Next day, the cells were treated with test substances for one hour before the cell culture plates were treated with defined doses of X-rays (in general 0, 2.4, 4.8, 12 Gray; irradiation instrument: Faxitron RX-650; Faxitron X-Ray LLC, USA). In order to determine the dose/effect relationships, the cells were treated with various concentrations of a test substance. After irradiation, the cells are cultivated for a further 24 hours in the presence of the test substance, the culture medium was then replaced with culture medium without test substance, and the cells were cultivated for a further 6-8 days. The cell colonies formed were subsequently stained with the aid of Crystal Violet and counted in a colony counter (Gelcount, Oxford Optronics, UK). Dose/effect curves, in particular IC50 values, were determined using a curve adaptation function for nonlinear dose/effect relationships.

DNA-PK [2] = biological target: T1, DNA-PK (Homo sapiens (Human), UniProt P78527); experiment: DNA-PK/Biochemical Assay (FlashPlate kinase assay); details: 5 μM ATP, 90 min, room temperature
Experimental: The kinase assay was carried out in streptavidin-coated […] microtitre FlashPlates®. To this end, 1.5 μg of the DNA-PK/protein complex and 100 ng of biotinylated substrate, such as, for example, […] biotin-NH2 (“biotin-DNA-PK peptide”), in a total volume of 36.5 μl (34.25 mM HEPES/KOH, 7.85 mM Tris-HCl, 68.5 mM KCl, 5 μM ATP, 6.85 mM MgCl2, 0.5 mM EDTA, 0.14 mM EGTA, 0.69 mM DTT, pH 7.4), were incubated at room temperature for 90 min with 500 ng of DNA from calf thymus, 0.1 μCi of 33P-ATP and 1.8% of DMSO per well with or without the test compound. The reaction was stopped using 50 μl/well of 200 mM EDTA. After incubation for a further 30 min at room temperature, the liquid was removed. Each well was washed three times with 100 μl of 0.9% sodium chloride solution. A non-specific reaction (blank value) was determined using 10 μM of a proprietary kinase inhibitor. The radioactivity measurement was carried out by means of a TopCount. IC50 values were calculated in RS1. • Literature: Kashishian et al. (2003) Molecular Cancer Therapeutics 1257.

[3] = test system: CHK2 phosphorylation at threonine 68 in HCT116 cells; experiment: Cellular CHK2 Phosphorylation at Threonine 68; assay type: cell-based; details: Homo sapiens, HCT-116, 6 h; HCT116, 10 μM bleomycin, six hours, ELISA; read-out: IC50 (CHK2 phospho-threonine 68)
Experimental: Cellular CHK2 Phosphorylation at Threonine 68
HCT116 cells were cultivated in MEM alpha medium with 10% of foetal calf serum, 1 mM sodium pyruvate and 2 mM glutamine at 37° C. and 10% CO2. The cells were detached from the base of the culture vessels with the aid of trypsine/EDTA, centrifuged off in centrifuge tubes and taken up in fresh medium. The cell density was subsequently determined. 50,000 cells were sown per cavity of a 96-well cell culture plate in 0.1 ml of culture medium and cultivated overnight. Next day, 10 μM bleomycin and test substances in fresh culture medium were added to the cells and these were cultivated for a further six hours. After lysis of the cells, phospho-threonine 68 of the CHK2 kinase was detected in the lysates with the aid of a phospho-CHK2 (Thr68)-specific ELISA detection system (Catalogue No. 7037, Cell Signaling Technologies, USA). The ELISA colour reaction was measured spectrophotometrically at 450 nm. The extinction of the unstimulated controls (vehicle control without bleomycin) was subtracted from the extinction values of the treatment groups. The controls which were treated with bleomycin were set equal to 100% and all other extinction values were set in relation thereto. IC50 values were determined with the aid of the GraphPad Prism statistics program (GraphPad Software, USA) or Assay Explorer (Symyx Technologies Inc., USA).

mammal cells = details: in cellular terms; cited from earlier work
DNA-PK [4] = biological target: T1, DNA-PK; details: 5.0 mM ATP; cited from earlier work
[5] = test system: kinases of the PI3K isoenzyme family; details: cited from earlier work
DNA-PK [6] = biological target: T1, DNA-PK; details: ATP-competitive; cited from earlier work

Row | IC50 (DNA-PK [2]) [nM] | melting point | SMILES | other results
1 | < 100 | 249.2 °C | COc1cc2ncc3c(c(-c4ccc(C#N)cc4)nn3C)c2cc1OC(C(N)=O)c1ccc(F)cc1 (stereo not shown) [Compound 8, 2-[1-(4-Cyanophenyl)-7-methoxy-3-methyl-3H-pyrazolo[3,4-c]quinolin-8-yloxy]-2-(4-fluorophenyl)-acetamide] | –
2 | > 100 | 212.2 °C | COc1cc2ncc3c(c(-c4ccc(C#N)cc4)nn3C)c2cc1OCCN(C)C [Compound 40, 4-[8-(2-Dimethylamino-ethoxy)-7-methoxy-3-methyl-3H-pyrazolo[3,4-c]quinolin-1-yl]benzonitrile] | –
3 | < 100 | 227.4 °C | CCn1nc(-c2ccc(C#N)cc2)c2c3cc(OC)c(OC)cc3ncc21 [Compound 56, 4-(7,8-Dimethoxy-3-ethyl-3H-pyrazolo[3,4-c]quinolin-1-yl)-benzonitrile] | –
4 | < 100 | 288.9 °C | COc1cc2c(cc1O)ncc1c2c(-c2ccc(C#N)cc2)nn1C [Compound 4, 4-(7-Hydroxy-8-methoxy-3-methyl-3H-pyrazolo-[3,4-c]quinolin-1-yl)-benzonitrile] | –
5 | 100 to 500 | – | COc1cc2ncc3c(c(-c4ccc(C#N)cc4)nn3C3CC3)c2cc1OC [Compound 62, 4-(3-Cyclopropyl-7,8-dimethoxy-3H-pyrazolo[3,4-c]-quinolin-1-yl)benzonitrile] | –
6 | 100 to 500 | – | COc1cc2ncc3c(c(-c4ccc(C#N)cc4)nn3C)c2cc1OCc1cccc(CN2CCOCC2)c1 [Compound 28, 4-[7-Methoxy-3-methyl-8-(3-morpholin-4-ylmethyl-benzyloxy)-3H-pyrazolo-[3,4-c]quinolin-1-yl]-benzonitrile] | –
7 | < 100 | – | COc1cc2ncc3c(c(-c4ccc(C#N)cc4)nn3C)c2cc1OCc1cc(Br)cs1 [Compound 36, 4-[8-(4-Bromothiophen-2-ylmethoxy)-7-methoxy-3-methyl-3H-pyrazolo[3,4-c]-quinolin-1-yl]benzonitrile] | –

Further lines, the compound ahead of its results:

Row | SMILES | IC50 (DNA-PK [2]) [nM] | melting point | other results
8 | COc1cc2ncc3c(c(-c4ccc(C#N)cc4F)nn3C)c2cc1OC [Compound 90, 4-(7,8-Dimethoxy-3-methyl-3H-pyrazolo-[3,4-c]quinolin-1-yl)-3-fluorobenzonitrile] | – | – | IC50 [1]: 100 to 500 nM
9 | CCN1CCN(CCNC(=O)C(Oc2cc3c(cc2OC)ncc2c3c(-c3ccc(C#N)cc3)nn2C)c2ccc(F)cc2)CC1 (stereo not shown) [Compound 48, 2-[1-(4-Cyano-phenyl)-7-methoxy-3-methyl-3H-pyrazolo-[3,4-c]quinolin-8-yloxy]-N-[2-(4-ethyl-piperazin-1-yl)ethyl]-2-(4-fluorophenyl)-acetamide] | 100 to 500 | 110 to 112 °C | –
10 | COc1cc2ncc3c(c(-c4ccc(C#N)cc4F)nn3C)c2cc1OC(C(N)=O)c1ccccc1 (stereo not shown) [Compound 91, 2-[1-(4-Cyano-2-fluoro-phenyl)-7-methoxy-3-methyl-3H-pyrazolo[3,4-c]-quinolin-8-yloxy]-2-phenyl-acetamide] | – | – | IC50 [3]: 100 to 500 nM
11 | COc1cc2ncc3[nH]nc(-c4ccc(C#N)c(N5CCCC5)c4)c3c2cc1OC [Compound 70, 4-(7,8-Dimethoxy-3H-pyrazolo[3,4-c]quinolin-1-yl)-2-pyrrolidin-1-yl-benzonitrile] | < 100 | 291 °C (dec.) | –
12 | O=c1cc(N2CCOCC2)oc2c(-c3ccccc3)cccc12 [LY294002] | – | – | increase in sensitivity to ionising irradiation (mammal cells): only a weak increase in sensitivity; IC50 (DNA-PK [4]): 1250 nM
13 | CCN1CCN(CC(=O)Nc2ccc(-c3cccc4c(=O)cc(N5CCOCC5)oc34)c3sc4ccccc4c23)CC1 [KU-0060648] | – | – | inhibition of kinases of the PI3K isoenzyme family [5]: potently inhibited
14 | O=c1cc(N2CCOCC2)oc2c(-c3cccc4c3sc3ccccc34)cccc12 [NU-7441] | – | – | IC50 (DNA-PK [6]): 20 nM
15 | COc1cc2ncc3c(c(-c4ccc(C#N)cc4)nn3C)c2cc1OC(C(=O)NCCN1CCNCC1)c1ccc(F)cc1 (stereo not shown) [Compound 50, 2-[1-(4-Cyano-phenyl)-7-methoxy-3-methyl-3H-pyrazolo-[3,4-c]quinolin-8-yl-oxy]-2-(4-fluoro-phenyl)-N-(2 - piperazin-1-ylethyl)-acetamide] | > 500 | – | –
